# Laboratory results published in patent publication US20230053688A1, “METHODS TO ALTER LATENCY IN EBV+ MALIGNANCIES” (Cornell University, priority 2020, published 2023).
# Structures can show the parent of a compound that is named as a salt. Where two headings read alike, the source gives them in different places.
# Tested on: LMP1 expression in Kem I cells
# Experiment: microbe, parasite or virus in culture
# Format: cell-based, EBV
# Details: for fold induction at 2.5 µM / fold induction at 1 µM: human gammaherpesvirus 4, 48 h
# [1] = read-out: Average LMP1 Fold Increase, Kem I cells, dose 2.5 uM, 48 hours, LMP1 transcript by in-well qRT-PCR, average of the two replicates
# [2] = read-out: Replicate 1-LMP1 Fold Increase, Kem I cells, dose 2.5 uM, 48 hours, LMP1 transcript by in-well qRT-PCR, screen replicate 1
# [3] = read-out: Replicate 2-LMP1 Fold Increase, Kem I cells, dose 2.5 uM, 48 hours, LMP1 transcript by in-well qRT-PCR, screen replicate 2
# [4] = read-out: Average LMP1 Fold Increase, Kem I cells, 2.5 uM, 48 hours, average of replicates 1 and 2
# [5] = read-out: Replicate 1-LMP1 Fold Increase, Kem I cells, 2.5 uM, 48 hours, fold change in LMP1 transcript vs vehicle
# [6] = read-out: Replicate 2-LMP1 Fold Increase, Kem I cells, 2.5 uM, 48 hours, fold change in LMP1 transcript vs vehicle
# [7] = Kem I cells, 2.5 uM, 48 hours, average of replicates 1 and 2
# [8] = Kem I cells, 2.5 uM, 48 hours, fold change in LMP1 transcript vs vehicle
# [9] = Kem I cells, dose 2.5 uM, 48 hours, LMP1 transcript by in-well qRT-PCR, average of the two replicates
# [10] = Kem I cells, dose 2.5 uM, 48 hours, LMP1 transcript by in-well qRT-PCR, screen replicate 1
# [11] = Kem I cells, dose 2.5 uM, 48 hours, LMP1 transcript by in-well qRT-PCR, screen replicate 2
Compound,fold induction at 2.5 µM [4],fold induction at 2.5 µM [5],fold induction at 2.5 µM [6],Average LMP1 Fold Increase [7],Replicate 1-LMP1 Fold Increase [8],Replicate 2-LMP1 Fold Increase [8],further results
C[C@@H](c1ncncc1F)[C@](O)(Cn1cncn1)c1ccc(F)cc1F [Voriconazole],,,,,,,fold induction at 2.5 µM [1]: 1.48; fold induction at 2.5 µM [2]: 1.02; fold induction at 2.5 µM [3]: 1.94
Cc1c(-c2ccc(O)cc2)n(Cc2ccc(OCCN3CCCCCC3)cc2)c2ccc(O)cc12 [Bazedoxifene HCl],0.54,0.52,0.56,,,,
Cc1ccc(S(=O)(=O)NC(=O)NN2CC3CCCC3C2)cc1 (stereo not drawn) [Gliclazide],0.73,0.98,0.49,,,,
COc1c(C)c(C(=O)c2ccc(N)c(C(=O)[O-])c2)n2ccccc12.[Na+] [SSR128129E],,,,0.44,0.36,0.52,
CHIR-98014,,,,,,,Average LMP1 Fold Increase: 0.67; Replicate 1-LMP1 Fold Increase: 0.81; Replicate 2-LMP1 Fold Increase: 0.54
O=C(NCc1ccccc1)c1csc(Nc2ccncn2)n1 [Thiazovivin],,,,,,,Average LMP1 Fold Increase [9]: 1.05 fold; Replicate 1-LMP1 Fold Increase [10]: 1.05 fold; Replicate 2-LMP1 Fold Increase [11]: 1.04 fold
Cl.Cl.Cl.O[C@@H](COc1cccc2ncccc12)CN1CCN([C@@H]2c3ccccc3[C@@H]3[C@H](c4ccccc42)C3(F)F)CC1 [Zosuquidar (LY335979) 3HCl],,,,,,,Average LMP1 Fold Increase [9]: 0.79 fold; Replicate 1-LMP1 Fold Increase [10]: 0.64 fold; Replicate 2-LMP1 Fold Increase [11]: 0.94 fold
C[C@H]1COC2(CCN(c3nc(=O)c4cc(C(F)(F)F)cc([N+](=O)[O-])c4s3)CC2)O1 (racemic) [BTZ043 Racemate],,,,0.64,0.62,0.67,
Cc1ccc(-c2cc(C(F)(F)F)nn2-c2ccc(S(N)(=O)=O)cc2)cc1 [Celecoxib],0.62,0.63,0.62,,,,
Cc1[nH]c(/C=C2\C(=O)Nc3ccc(S(=O)(=O)N(C)c4cccc(Cl)c4)cc32)c(C)c1C(=O)N1CCN(C)CC1 [SU11274],0.94,1.05,0.82,,,,
C[C@H](NCc1ccc(OCc2cccc(F)c2)cc1)C(N)=O [Safinamide Mesylate],0.95,0.2,1.71,,,,
Ifenprodil Tartrate,,,,0.96,0.58,1.35,
Clc1ccccc1CN1CCc2sccc2C1 [Ticlopidine HCl],,,,,,,fold induction at 2.5 µM [1]: 1.15; fold induction at 2.5 µM [2]: 0.52; fold induction at 2.5 µM [3]: 1.78
Cc1sc2c(c1C)C(c1ccc(Cl)cc1)=N[C@@H](CC(=O)Nc1ccc(O)cc1)c1nnc(C)n1-2 [OTX015],0.63,0.14,1.12,,,,
Cc1ccccc1C(=O)Nc1ccc(C(=O)N2CCCC(N(C)C)c3ccccc32)cc1 (stereo not drawn) [Mozavaptan],0.61,0.32,0.9,,,,
COc1ccc2c(c1)c(C1=C(c3c[nH]c4ccccc34)C(=O)NC1=O)cn2CCCN(C)C [Go 6983],,,,0.34,0.22,0.45,
"CNC(=O)[C@H](Cc1c[nH]c2ccccc12)NC(=O)[C@@H](CC(=O)NO)CC(C)C [Ilomastat (GM6001, Galardin)]",,,,0.08,0.05,0.12,
COc1ccc2cc(-c3nc(-c4ccc([S+](C)[O-])cc4)[nH]c3-c3ccncc3)ccc2c1 (stereo not drawn) [Tie2 kinase inhibitor],,,,,,,Average LMP1 Fold Increase [9]: 1.08 fold; Replicate 1-LMP1 Fold Increase [10]: 0.36 fold; Replicate 2-LMP1 Fold Increase [11]: 1.81 fold
CN(c1ncccc1CNc1nc(Nc2ccc3c(c2)CC(=O)N3)ncc1C(F)(F)F)S(C)(=O)=O [PF-562271],,,,0.50,0.81,0.19,
CCN(c1cc(-c2ccc(CN3CCOCC3)cc2)cc(C(=O)NCc2c(C)cc(C)[nH]c2=O)c1C)C1CCOCC1 [EPZ 6438],,,,,,,"fold induction at 1 µM (read-out: Average LMP1 Fold Increase, Kem I cells, 1 uM, 48 hours, average of replicates 1 and 2): 24.5; fold induction at 1 µM (read-out: Replicate 1-LMP1 Fold Increase, Kem I cells, 1 uM, 48 hours, fold change in LMP1 transcript vs vehicle): 2.14; fold induction at 1 µM (read-out: Replicate 2-LMP1 Fold Increase, Kem I cells, 1 uM, 48 hours, fold change in LMP1 transcript vs vehicle): 46.9"
Cc1noc(-c2ccc(CSCCC(=O)O)cc2)c1NC(=O)OC(C)c1ccccc1Cl (stereo not drawn) [Ki16425],,,,0.62,0.80,0.45,
COc1cc(Br)c(Nc2nc(-c3c(C)nc4ncccn34)cs2)c(Br)c1 [PTC-209],,,,,,,Average LMP1 Fold Increase: 0.90; Replicate 1-LMP1 Fold Increase: 0.34; Replicate 2-LMP1 Fold Increase: 1.46

Compound,fold induction at 2.5 µM [4],fold induction at 2.5 µM [5],fold induction at 2.5 µM [6],Average LMP1 Fold Increase [7],Replicate 1-LMP1 Fold Increase [8],Replicate 2-LMP1 Fold Increase [8],further results
CC(C)Oc1ccc(-c2cnc3c(-c4ccnc5ccccc45)cnn3c2)cc1 [DMH1],,,,0.75,0.21,1.28,
CC(C)(C#N)c1cc(Cn2cncn2)cc(C(C)(C)C#N)c1 [Anastrozole],0.94,0.45,1.42,,,,
CCn1c(N)c(C(=O)NC)c(=O)c2ccc(C#C[C@@](C)(O)COC)nc21 [SAR131675],,,,0.40,0.30,0.49,
C[C@H]1COC2=C1C(=O)C(=O)c1c2ccc2c1CCCC2(C)C [Cryptotanshinone],0.85,0.94,0.77,,,,
COc1ccc(CNCc2cccc3ccccc23)cc1.Cl [ML133 HCl],,,,0.54,0.42,0.67,
CC(C)(C)c1cc(C(C)(C)C)c(NC(=O)c2c[nH]c3ccccc3c2=O)cc1O [Ivacaftor (VX-770)],,,,1.35,2.22,0.49,
C[C@@H]1COCCN1c1cc(C2(S(C)(=O)=O)CC2)nc(-c2cccc3[nH]ccc23)n1 [AZ20],,,,1.39,1.56,1.22,
CC(/C=C/C(=O)NO)=C\[C@@H](C)C(=O)c1ccc(N(C)C)cc1 [Trichostatin A (TSA)],,,,,,,Average LMP1 Fold Increase [9]: 88.29 fold; Replicate 1-LMP1 Fold Increase [10]: 44.18 fold; Replicate 2-LMP1 Fold Increase [11]: 132.40 fold
CS(=O)(=O)c1cccc(CNc2nc(Nc3ccc4c(c3)CCC(=O)N4)ncc2C(F)(F)F)c1 [PF-573228],,,,0.66,0.87,0.45,
COC1CCN(C(=O)c2cc(Cc3n[nH]c(=O)c4ccccc34)ccc2F)CC1 [AZD2461],,,,1.00,0.50,1.51,
Cc1cnc(NC(=O)Nc2cc(Br)c(C)cc2OC[C@@H]2CNCCO2)cn1 [LY2603618],,,,1.21,0.94,1.47,
CCC(=O)NCC[C@@H]1CCc2ccc3c(c21)CCO3 [Ramelteon],0.33,0.45,0.22,,,,
Cc1[nH]c2ccccc2c1CCNCc1ccc(/C=C/C(=O)NO)cc1 [Panobinostat (LBH589)],,,,383.26,451.65,314.88,
CNCc1ccc(-c2cc(-c3nc(-c4ccc(S(=O)(=O)C(C)C)cc4)cnc3N)on2)cc1 [VE-822],,,,,,,fold induction at 2.5 µM [1]: 4.03; fold induction at 2.5 µM [2]: 3.28; fold induction at 2.5 µM [3]: 4.78
CCCC(C)NC(=O)c1ccc(Cl)c(Cl)c1 (stereo not drawn) [NSC 405020],,,,0.39,0.50,0.28,
Nc1ccc(C(=O)O)c(O)c1 [Sodium 4-Aminosalicylate],0.36,0.19,0.53,,,,
COc1ccc(-c2nc3ccc(C4=NNC(=O)CC4C)cc3[nH]2)cc1 (stereo not drawn) [Pimobendan],0.87,1.11,0.64,,,,
CCOC(=O)C1=C(COCCN)NC(C)=C(C(=O)OC)C1c1ccccc1Cl (stereo not drawn) [Amlodipine],2.06,0.51,3.61,,,,
Cc1ccc(S(=O)(=O)Cc2nc(-c3ccc(C(=O)NCc4cccnc4)cc3)oc2C)cc1 [STF-118804],,,,0.10,0.08,0.11,
O=C(C[S+]([O-])Cc1ccco1)NC/C=C\COc1cc(CN2CCCCC2)ccn1 (stereo not drawn) [Lafutidine],0.85,0.94,0.76,,,,
CN(Cc1cnc2nc(N)nc(N)c2n1)c1ccc(C(=O)N[C@@H](CCC(=O)O)C(=O)O)cc1 [Abitrexate (Methotrexate)],,,,3.17,3.70,2.64,
